Assay results as given in patent US20090298897A1, “Treatment of Inflammatory Disorders With Triazole Compounds” (priority 2006, published 2009).
“And” between values parts separate entries of the source, which are not always exact repeats. Identical values can stand only once. “Also recorded” adds a separate entry of the source.

What was measured:
[1] = tested on: moderate to severe plaque type psoriasis; test: Treatment of psoriasis with oral rambazole (PASI score); format: in vivo, human; conditions: for % PASI Score from Baseline: individual subjects
Procedure: Seventeen patients with a Psoriasis Area and Severity Index (PASI) score of at least 5 (moderate to severe plaque type psoriasis) received a daily oral dose of 1 mg of rambazole. The evolution of the PASI score was monitored after 1, 2, 4 and 8 weeks of treatment and at the end of a 2-week follow-up period. […] Biopsies from lesions were taken and surface markers were analyzed.

Interleukin-1 (IL-1) = test: Expression of IL-1 in the skin of healthy volunteers (real-time PCR); format: in vivo, human
Procedure: In this randomized, double-blind, left-right, placebo-controlled trial, the expression of Interleukin-1 (IL-1) in the skin of 15 healthy subjects was evaluated after a once daily application of rambazole gel at two different concentrations (0.35% or 0.07%) on intact skin for 9 days. The IL-1 biomarker was analyzed with real-time PCR.

IP-10 = IP-10 expression and secretion in IFNγ-activated normal human epidermal keratinocytes (ELISA); format: cell-based; conditions: 50 U/mL IFNγ; rambazole 10^-5 M to 3×10^-8 M for 18 hours
Procedure: Fourth passage normal human epidermal keratinocytes were plated at 2,000 cells/well in low Ca^2+ KSFM. After 3 days incubation to 60% confluence, the medium was removed and cells were stimulated with 50 U/mL IFNγ and incubated with rambazole ranging from 10^-5 M to 3×10^-8 M for 18 hours. Interferon-inducible protein (IP-10) expression in the culture medium was determined using the IP-10 sandwich-type ELISA and all data were corrected for cell count. Values are represented as mean percentages±SD (n=4) versus drug solvent control.

IL-12p40 = test: IL-12 secretion by activated monocytes (IL-12p40 ELISA); format: cell-based, human; conditions: monocytes activated with Zymosan or 19 kDa lipoprotein for 18 h
Procedure: Peripheral blood mononuclear cells (PBMC) were isolated from healthy donors by density gradient centrifugation on Ficoll-Hypaque Plus and monocytes were selected by adherence. After overnight culture in RPMI 1640 supplemented with […] FBS, monocytes were activated with Zymosan or 19 kDa lipoprotein for 18 h, and IL-12p40 was measured in the supernatant by ELISA.

[2] = tested on: SLS-induced irritant dermatitis; test: Irritant dermatitis induced by sodium lauryl sulfate (SLS); format: in vivo, human; conditions: 0.35% gel, 4 days pre-treatment and 5 days during 2% SLS; healthy volunteers
Procedure: Rambazole (0.35%) gel was applied as a pre-treatment during four days. Inflammation was induced by applying 2% SLS during 2 hours in rings on the arm of twelve healthy volunteers once a day for five days. Rambazole (0.35%) gel was applied during the five days of induced inflammation. Skin reactions of non-treated and rambazole gel-treated skin sites were assessed 24 hours after each application with SLS and 72 hours after the last SLS application (visual scoring of redness, chromametry, TEWL).

[3] = tested on: mild to moderate acne vulgaris; test: Treatment of acne vulgaris with topical rambazole; format: in vivo, human; conditions: after 12 weeks; daily topical 0.35% rambazole
skin of volunteers, UVB = test: Effects of topical 0.35% rambazole on UVB-induced inflammation (chromametry); format: in vivo, human; conditions: topical 0.35% for 9 days, then 5 days UVB
Text: In an investigator-blinded, placebo-controlled study, topical 0.35% rambazole was applied to the skin of volunteers for 9 days, followed by 5 days of induction of inflammation with UVB. Adapalene was used in the study as a standard anti-inflammatory agent.

Compound: CCC(CC)C(c1ccc(Nc2nc3ccccc3s2)cc1)n1cncn1 (stereo not shown) [rambazole]
- side effects / tolerability ([1]; daily oral dose 1 mg, psoriasis patients): mild to moderate; also recorded: well tolerated
- time lesions continue to improve and show reduced inflammatory patterns after discontinuation of treatment ([1]; rambazole-treated lesions such as psoriatic lesions): at least 3 months
- mean reduction in PASI score ([1]; subjects that completed 8 weeks of treatment, daily oral dose 1 mg): 51.4%
- % PASI Score from Baseline ([1]; week 1, 1 mg oral daily): 100% (4×) and 93% and 81% and 88% and 80% and 92% (2×) and 113% and 87% and 97% and 89% (2×) and 79% and 108%
- % PASI Score from Baseline ([1]; week 2, 1 mg oral daily): 99% and 86% (2×) and 95% and 79% and 108% and 75% and 92% (2×) and 150% and 96% and 88% and 89% and 77% and 98% and 83% and 117%
- % PASI Score from Baseline ([1]; week 4, 1 mg oral daily): 99% and 88% and 81% and 57% and 84% (2×) and 78% and 104% and 85% and 97% and 70% and 69% and 80% and 60% and 107% and 206%
- % PASI Score from Baseline ([1]; week 8, 1 mg oral daily): 96% and 55% and 109% and 47% and 67% and 73% and 62% and 79% and 43% and 35% and 34% and 41% and 86% and 97%
- % PASI Score from Baseline ([1]; week 10 (end of 2-week follow-up)): 81% and 27% and 105% and 51% and 36% and 49% and 45% and 37% and 73% and 52% and 4% and 34% and 28% and 70% and 87%
- skin reaction reported by one subject (Interleukin-1 (IL-1); 0.35% rambazole, during one day after 8 days of treatment): mild itching
- local skin reactions during 9 days of treatment (Interleukin-1 (IL-1); gel 0.35% or 0.07% once daily): no itching, irritating, stinging, burning or vesiculation occurred
- IL-1 expression in skin (Interleukin-1 (IL-1); gel 0.35% or 0.07% once daily on intact skin for 9 days, healthy subjects): dose-dependently decrease
- IP-10 expression and secretion (IP-10): dose-dependently down regulated
- IL-12 secretion (IL-12p40 in supernatant) (IL-12p40): dose-dependently suppressed; also recorded: suppression of IL-12
- inflammatory response induced by application of SLS (visual scoring of redness, chromametry, TEWL) [2]: inhibits the inflammatory response
- reduction in global assessment score [3]: approximately 40%
- phototoxicity (chromametry) (skin of volunteers, UVB): no indication of phototoxicity
